{
  "source": "patent US20250064955A1",
  "about": "“DRUG CONJUGATES AND METHODS OF PREPARING AND USING THE SAME” (priority 2021, published 2025)",
  "key": {"[1]": {"tested_on": "HCC1954 breast ductal carcinoma cells", "experiment": "In vitro potency, cell viability (Cell Titer Glo 2.0), HCC1954", "type": "cell-based", "settings": "Homo sapiens, HCC1954, 120 h", "method": "(§1) HCC1954 breast ductal carcinoma or SK-BR-3 cells (ATCC, Manassas, VA, USA) were seeded into 384-well white-walled culture plates and allowed to adhere for 2-4 hours. Cells were then treated with test articles at least in duplicate by addition of 5-fold serially diluted test articles prepared at 2× final concentration and incubated at 37° C. for 120 hours. Cell viability following treatment was determined by Cell Titer Glo 2.0 Assay (Promega, Madison, WI, USA) and normalized to non-treated controls. Dose-response relationships were analyzed using GraphPad Prism (La Jolla, CA, USA), and IC50 values were derived from non-linear regression analyses using a 4-parameter logistic equation."}, "SK-BR-3 cells": {"tested_on": "SK-BR-3 cells", "experiment": "In vitro potency, cell viability (Cell Titer Glo 2.0), SK-BR-3", "type": "cell-based", "settings": "Homo sapiens, SK-BR-3, 120 h", "method": "as §1"}},
  "note": "Where a SMILES comes first, the peptide text is derived from it. [ ]: non-standard residue; d: D form. The star is where a group is joined. Dolaproine = CO[C@@H]([C@@H]1CCCN1)[C@@H](C)C(=O)O; Dil = CC[C@H](C)[C@H](NC)[C@@H](CC(=O)O)OC; X1 = C[C@@H](N*)[C@@H](O)c1ccccc1; NMeV = CN[C@H](C(=O)O)C(C)C",
  "data": [
    {"smiles": "CC[C@H](C)[C@@H]([C@@H](CC(=O)N1CCC[C@H]1[C@H](OC)[C@@H](C)C(=O)N[C@H](C)[C@@H](O)c1ccccc1)OC)N(C)C(=O)[C@@H](NC(=O)[C@@H](NC)C(C)C)C(C)C", "note": "[MMAE, (S)-N-((3R,4S,5S)-1-((S)-2-((1R,2R)-3-(((1S,2R)-1-hydroxy-1-phenylpropan-2-yl)amino)-1-methoxy-2-methyl-3-oxopropyl)pyrrolidin-1-yl)-3-methoxy-5-methyl-1-oxoheptan-4-yl)-N,3-dimethyl-2-((S)-3-methyl-2-(methylamino)butanamido)butanamide] (H-[NMeV]V[Dil][Dolaproine]-X1)", "values": [
      {"measurement": "IC50", "setting": "[1]", "value": 210, "unit": "pM"},
      {"measurement": "IC50", "setting": "SK-BR-3 cells", "value": 127, "unit": "pM"}
    ]}
  ]
}
